Results as given in patent publication US20240365784A1, “AZOLE COMPOUNDS FOR CONTROLLING INVERTEBRATE PESTS” (FMC Corporation, priority 2021, published 2024).

Columns and labels:
Type in all cases: in vivo
[1] = test system: sweetpotato whitefly (Bemisia tabaci (Gennadius)); assay: whole plant or invertebrate; settings: 312 h, cotton plant infested with eggs, assessed after 13 days; for mortality at 50 ppm: sprayed at 50 ppm; for mortality at 10 ppm: tested at 10 ppm
Experimental: (§1) Test compounds were formulated using a solution containing 10% acetone, 90% water and 300 ppm Activator 90® non-ionic surfactant (Loveland Products, Loveland, Colorado, USA). The formulated compounds were applied in 1 mL of liquid through an atomizer nozzle positioned 1.27 cm (0.5 inches) above the top of each test unit. Test compounds were sprayed at the rates indicated, and each test was replicated three times.
For evaluating control of the sweetpotato whitefly (Bemisia tabaci (Gennadius)) through contact and/or systemic means, the test unit consisted of a small open container with a 12-14-day-old cotton plant inside. Prior to the spray application, both cotyledons were removed from the plant, leaving one true leaf for the assay. Adult whiteflies were allowed to lay eggs on the plant and then were removed from the test unit. Cotton plants infested with at least 15 eggs were submitted to the test for spraying.
[…] After spraying, the test units were allowed to dry for 1 hour. The cylinders were then removed, and the units were taken to a growth chamber and held for 13 days at 28° C. and 50-70% relative humidity. Each test unit was then visually assessed for insect mortality.

[2] = test system: corn planthopper (Peregrinus maidis (Ashmead)); assay: whole plant or invertebrate; settings: 144 h, corn plant, nymphs, assessed after 6 days; for mortality at 10 ppm: sprayed at 10 ppm; for mortality at 50 ppm: sprayed at 50 ppm
Experimental: as §1
For evaluating control of corn planthopper (Peregrinus maidis (Ashmead)) through contact and/or systemic means, the test unit consisted of a small open container with a 3-4-day-old corn (maize) plant inside. White sand was added to the top of the soil prior to application of the test compound.
(§2) Test compounds were formulated and sprayed at 250 and/or 50 ppm and/or 10 ppm. After spraying of the formulated test compound, the test units were allowed to dry for 1 h before they were post-infested with ˜15-20 nymphs (18-to-21-day-old). A black, screened cap was placed on the top of each test unit, and the test units were held for 6 days in a growth chamber at 22-24° C. and 50-70% relative humidity. Each test unit was then visually assessed for insect mortality.

[3] = test system: Brown Planthopper (Nilaparvata lugens (Stil)); assay: Test F: control of Brown Planthopper, spray, contact and/or systemic; settings: 120 h, sprayed at 10 ppm, rice stems, nymphs, assessed after 5 days
Experimental: as §1
For evaluating control of Brown Planthopper (Nilaparvata lugens (Stil)) through contact and/or systemic means, the test unit consisted of a small open container with 6-10 25-day-old rice stems inside. White sand was added to the top of the soil prior to application of the test compound.
as §2, with “at” for “at 250 and/or”, “(15-to-17-day-old).” for “(18-to-21-day-old).”, “5” for “6”, “28°” for “22-24°”, “65%” for “50-70%”

[4] = test system: green peach aphid (Myzus persicae (Sulzer)); assay: whole plant or invertebrate; settings: 144 h, sprayed at 50 ppm, radish plant, assessed after 6 days
Experimental: as §1
For evaluating control of green peach aphid (Myzus persicae (Sulzer)) through contact and/or systemic means, the test unit consisted of a small open container with a 12-15-day-old radish plant inside. This was pre-infested by placing on a leaf of the test plant 30-40 aphids on a piece of leaf excised from a culture plant (cut-leaf method). The aphids moved onto the test plant as the leaf piece desiccated. After pre-infestation, the soil of the test unit was covered with a layer of sand.
Test compounds were formulated and sprayed at 250 and/or 50 ppm. After spraying of the formulated test compound, each test unit was allowed to dry for 1 hour and then a black, screened cap was placed on top. The test units were held for 6 days in a growth chamber at 19-21° C. and 50-70% relative humidity. Each test unit was then visually assessed for insect mortality.

[5] = test system: cotton melon aphid (Aphis gossypii (Glover)); assay: whole plant or invertebrate; settings: 144 h, okra plant, assessed after 6 days; for mortality at 50 ppm: sprayed at 50 ppm; for mortality at 10 ppm: tested at 10 ppm
Experimental: as §1
For evaluating control of cotton melon aphid (Aphis gossypii (Glover)) through contact and/or systemic means, the test unit consisted of a small open container with a 5-day-old okra plant inside. This was pre-infested with 30-40 insects on a piece of leaf according to the cut-leaf method, and the soil of the test unit was covered with a layer of sand.
[…] After spraying, the test units were maintained in a growth chamber for 6 days at 19° C. and 70% relative humidity. Each test unit was then visually assessed for insect mortality.

SMILES | mortality at 50 ppm [1] [%] | mortality at 10 ppm [2] [%] | mortality at 50 ppm [2] [%] | mortality at 10 ppm [3] [%] | mortality at 50 ppm [4] [%] | mortality at 50 ppm [5] [%] | mortality at 10 ppm [5] [%] | mortality at 10 ppm [1] [%]
Fc1cncc(-n2nccn2)c1Cc1ccc(OC(F)(F)F)cc1 [Compound 1, 3-fluoro-5-(triazol-2-yl)-4-[[4(trifluoromethoxy)phenyl]methyl]pyridine] | ≥ 70 | ≥ 80 | ≥ 80 | ≥ 80 | ≥ 80 | – | – | –
FC(F)(F)Sc1ccc(Cc2c(Cl)cncc2-n2ccnn2)cc1 [Compound 6] | ≥ 70 | – | ≥ 80 | – | – | – | – | –
CC(c1ccc(SC(F)(F)F)cc1)c1c(F)cncc1-n1nccn1 (centres unmarked) [Compound 8] | – | ≥ 80 | ≥ 80 | ≥ 80 | ≥ 80 | ≥ 80 | ≥ 80 | –
CC(c1ccc(OC(F)(F)F)cc1)c1c(F)cncc1-n1nccn1 (centres unmarked) [Compound 9, 3-fluoro-5-(triazol-2-yl)-4-[1-[4-(trifluoromethoxy)phenyl]ethyl]pyridine] | ≥ 70 | ≥ 80 | ≥ 80 | – | ≥ 80 | ≥ 80 | ≥ 80 | –
CC(c1ccc(SC(F)(F)F)cc1)c1c(F)cncc1-n1ccnn1 (centres unmarked) [Compound 11] | – | – | ≥ 80 | – | – | ≥ 80 | – | –
FC(F)(F)Oc1ccc(Cc2c(Cl)cncc2-n2nccn2)cc1 [Compound 12] | – | ≥ 80 | ≥ 80 | – | ≥ 80 | ≥ 80 | – | –
CC(c1ccc(SC(F)(F)F)cc1)c1c(Cl)cncc1-n1nccn1 (centres unmarked) [Compound 14] | ≥ 70 | – | – | – | ≥ 80 | ≥ 80 | – | –
FC(F)(F)Oc1ccc(Cc2c(Br)cncc2-n2nccn2)cc1 [Compound 15] | ≥ 70 | – | – | – | ≥ 80 | ≥ 80 | – | –
FC(F)(F)Oc1ccc(Cc2ccncc2-n2nccn2)cc1 [Compound 16] | ≥ 70 | – | ≥ 80 | – | – | ≥ 80 | ≥ 80 | –
FC(F)(F)Oc1ccc(Cc2c(I)cncc2-n2nccn2)cc1 [Compound 17] | ≥ 70 | – | – | – | – | ≥ 80 | – | –
[O-][S+](c1ccc(Cc2c(F)cncc2-n2nccn2)cc1)C(F)(F)F (centres unmarked) [Compound 18] | ≥ 70 | – | ≥ 80 | – | ≥ 80 | ≥ 80 | – | –
[O-][S+](c1ccc(Cc2c(Cl)cncc2-n2nccn2)cc1)C(F)(F)F (centres unmarked) [Compound 22] | ≥ 70 | – | – | – | ≥ 80 | ≥ 80 | – | –
FC(F)(F)Sc1ccc(Cc2ccncc2-n2nccn2)cc1 [Compound 23] | ≥ 70 | ≥ 80 | ≥ 80 | – | ≥ 80 | ≥ 80 | – | –
Fc1cncc(-c2ncco2)c1Cc1ccc(SC(F)(F)F)cc1 [Compound 30] | – | ≥ 80 | ≥ 80 | – | – | ≥ 80 | ≥ 80 | –
FC(F)(F)Sc1ccc(Cc2c(Cl)cncc2-c2nccs2)cc1 [Compound 35] | ≥ 70 | – | ≥ 80 | – | – | ≥ 80 | – | –
FC(F)(F)Sc1ccc(Cc2c(Cl)cncc2-c2ncco2)cc1 [Compound 37] | – | – | ≥ 80 | – | – | – | – | –
Fc1cncc(-c2nccs2)c1Cc1ccc(OC(F)(F)F)cc1 [Compound 40] | ≥ 70 | ≥ 80 | ≥ 80 | – | – | ≥ 80 | ≥ 80 | ≥ 70

SMILES | mortality at 50 ppm [1] [%] | mortality at 10 ppm [2] [%] | mortality at 50 ppm [2] [%] | mortality at 10 ppm [3] [%] | mortality at 50 ppm [4] [%] | mortality at 50 ppm [5] [%] | mortality at 10 ppm [5] [%] | mortality at 10 ppm [1] [%]
Fc1cncc(-c2ncco2)c1Cc1ccc(OC(F)(F)F)cc1 [Compound 41] | – | ≥ 80 | ≥ 80 | – | – | ≥ 80 | ≥ 80 | –
FC(F)Oc1ccc(Cc2c(Cl)cncc2-n2cccn2)cc1 [Compound 45] | ≥ 70 | ≥ 80 | ≥ 80 | – | – | ≥ 80 | – | –
FC(F)Oc1ccc(Cc2c(Cl)cncc2-n2nccn2)cc1 [Compound 46] | ≥ 70 | ≥ 80 | ≥ 80 | – | – | ≥ 80 | – | ≥ 70
CC(c1ccc(SC(F)(F)F)cc1)c1c(F)cncc1-n1cccn1 (centres unmarked) [Compound 50] | – | – | ≥ 80 | – | – | ≥ 80 | – | –
CC(c1ccc(SC(F)(F)F)cc1)c1c(Cl)cncc1-n1cncn1 (centres unmarked) [Compound 51] | ≥ 70 | – | ≥ 80 | – | ≥ 80 | ≥ 80 | – | –
CC(c1ccc(SC(F)(F)F)cc1)c1c(F)cncc1-n1cncn1 (centres unmarked) [Compound 52] | ≥ 70 | – | ≥ 80 | – | ≥ 80 | ≥ 80 | – | –
CC(c1ccc(SC(F)(F)F)cc1)c1c(F)cncc1-c1nccs1 (centres unmarked) [Compound 54] | ≥ 70 | ≥ 80 | ≥ 80 | – | – | ≥ 80 | – | –
CCC(c1ccc(SC(F)(F)F)cc1)c1c(F)cncc1-n1nccn1 (centres unmarked) [Compound 57] | ≥ 70 | ≥ 80 | ≥ 80 | – | – | ≥ 80 | – | ≥ 70
CCC(c1ccc(OC(F)(F)F)cc1)c1c(F)cncc1-n1nccn1 (centres unmarked) [Compound 60] | ≥ 70 | – | ≥ 80 | – | – | ≥ 80 | – | ≥ 70
CC(c1ccc(OC(F)(F)F)cc1)c1c(F)cncc1-c1nccs1 (centres unmarked) [Compound 63] | ≥ 70 | ≥ 80 | ≥ 80 | – | ≥ 80 | ≥ 80 | ≥ 80 | –
Fc1cncc(-n2nccn2)c1Cc1cccc(OC(F)(F)C(F)F)c1 [Compound 65] | – | – | ≥ 80 | – | – | ≥ 80 | – | –
Fc1cc(Cc2c(F)cncc2-n2nccn2)ccc1OC(F)(F)F [Compound 66] | ≥ 70 | ≥ 80 | ≥ 80 | – | – | ≥ 80 | ≥ 80 | –
FC(F)(F)Oc1ccc(Cc2c(Cl)cncc2-n2nccn2)cc1Br [Compound 68] | ≥ 70 | ≥ 80 | ≥ 80 | – | ≥ 80 | – | – | ≥ 70
Fc1cncc(-n2nccn2)c1Cc1ccc(OC(F)(F)F)c(Br)c1 [Compound 69] | ≥ 70 | ≥ 80 | ≥ 80 | – | ≥ 80 | ≥ 80 | – | –
FC(F)(F)Oc1ccc(Cc2c(Cl)cncc2-n2nccn2)cc1Cl [Compound 71] | ≥ 70 | ≥ 80 | ≥ 80 | – | ≥ 80 | ≥ 80 | – | ≥ 70
Fc1cc(Cc2c(Cl)cncc2-n2nccn2)ccc1C(F)(F)F [Compound 72] | ≥ 70 | ≥ 80 | ≥ 80 | – | ≥ 80 | ≥ 80 | – | –
Fc1cc(Cc2c(F)cncc2-n2nccn2)ccc1C(F)(F)F [Compound 73] | – | ≥ 80 | ≥ 80 | – | – | ≥ 80 | ≥ 80 | –
